Laboratory results reported in PMC9011347, “Small-Molecule Inhibitors Targeting Lipolysis in Human Adipocytes” (Journal of the American Chemical Society, 2022).

Tested on: HepG2 cells
Test: Untargeted lipidomic analysis (UHPLC-MS, OPLS-DA)
Assay type: cell-based, human
Settings: 40 μM, 3 h, versus DMSO
Experimental: Figure 2 Development and characterization of the human ATGL inhibitor NG-497. (a) Structure and IC50 values of human ATGL inhibitors. (b) Dose-dependent inhibition of human ATGL by respective inhibitors. (c) ATGL activity was determined at the indicated substrate concentrations in the absence and presence of NG-497 (0.5 μM). Ki was determined by nonlinear regression analysis using GraphPad Prism. Lineweaver–Burk analysis of ATGL inhibition is shown in the inset. (d) Toxicity of NG-497 in HepG2 cells was determined after 24 h incubation at indicated concentrations. Cisplatin and DMSO were used as positive and negative controls, respectively. Cytotoxicity was determined using the Roche LDH Kit and calculated as relative LDH release compared to fully lysed cells. (e) Stability of NG-497 was analyzed via ultrahigh-performance liquid chromatography–mass spectrometry (UHPLC-MS) after incubation in human serum for 0 or 3 h at 37 °C. Atglistatin and a chemically related unstable compound were used as controls. […] NG-497 concentrations/well were determined at the indicated time points using UHPLC-MS. […] Statistical significance was determined via t test (*p < 0.05; **p < 0.01; ***p < 0.001) or ANOVA followed by Bonferroni post hoc test (^###p < 0.001). […] The detected 297 lipid species of both groups were analyzed with supervised multivariate analysis OPLS-DA and are shown as a loading plot. […]

## CCOc1ccc(-c2cc(OC)cc(C(=O)OC(C)C)n2)cc1 [NG-497]
  lipidomic changes (OPLS-DA top 25 contributing lipid species): 20 of the top 25 hits were due to an increase of TAG species, while three DAG species were decreased
